Data from patent US20080161306A1, “Pyrrole Derivatives as Dna Gyrase and Topoisomerase Inhibitors” (priority 2005, published 2008).
In brackets after ≈: the same amount, converted by molar mass. Like-named read-outs stand apart in the source and are kept apart here.

Legend:
Format in all cases: cell-based
Streptococcus pneumoniae = test: Bacterial susceptibility testing in liquid media (MIC), Streptococcus pneumoniae; details: lowest concentration reducing growth by 80% or more, 37 degrees C., 24 hrs; for MIC: Streptococcus pneumoniae
Protocol: (§1) Compounds were tested for antimicrobial activity by susceptibility testing in liquid media. Compounds were dissolved in dimethylsulfoxide and tested in 10 doubling dilutions in the susceptibility assays. The organisms used in the assay were grown overnight on suitable agar media and then suspended in a liquid medium appropriate for the growth of the organism. The suspension was a 0.5 McFarland and a further 1 in 10 dilution was made into the same liquid medium to prepare the final organism suspension in 100 μL. Plates were incubated under appropriate conditions at 37 degrees C. for 24 hrs prior to reading. The Minimum Inhibitory Concentration was determined as the lowest drug concentration able to reduce growth by 80% or more.

SAU516 = test: Bacterial susceptibility testing in liquid media (MIC), SAU516; details: strain SAU516; lowest concentration reducing growth by 80% or more; 37 degrees C., 24 hrs
Protocol: as §1

HIN446 = test: Bacterial susceptibility testing in liquid media (MIC), HIN446; details: strain HIN446; lowest concentration reducing growth by 80% or more; 37 degrees C., 24 hrs
Protocol: as §1

[1] = strain SPN548, read-out: MIC SPN548

| Compound | MIC SPN548 (Streptococcus pneumoniae; strain SPN548) | MIC SAU516 (SAU516) | MIC HIN446 (HIN446) | MIC (Streptococcus pneumoniae; [1]) | MIC (SAU516) | MIC (HIN446) | MIC (Streptococcus pneumoniae; read-out: MIC against Streptococcus pneumoniae) |
| --- | --- | --- | --- | --- | --- | --- | --- |
| CO[C@@H]1C=C(c2cccc(C(=O)O)c2)CC[C@@H]1NC(=O)c1[nH]c(C)c(Cl)c1Cl (relative stereo) [Example 11, 3-((3,4-Cis)-4-{[(3,4-Dichloro-5-methyl-1H-pyrrol-2-yl)carbonyl]amino}-3-methoxycyclohex-1-en-1-yl)benzoic acid] | 0.13 µg/mL (≈ 0.307 µM) | 0.5 µg/mL (≈ 1.18 µM) | 2 µg/mL (≈ 4.72 µM) | – | – | – | – |
| Cc1[nH]c(C(=O)N[C@H]2CC[C@H](c3cccc(C(=O)O)c3)CC2)c(Cl)c1Cl [Example 5, trans-3-(4-{[(3,4-Dichloro-5-methyl-1H-pyrrol-2-yl)carbonyl]amino}cyclohexyl)benzoic acid] | – | – | – | 4 µg/mL (≈ 10.1 µM) | 4 µg/mL (≈ 10.1 µM) | 16 µg/mL (≈ 40.5 µM) | – |
| Cc1[nH]c(C(=O)NC2CC=C(c3cccc(C(=O)O)c3)CC2)c(Cl)c1Cl (stereo not shown) [Example 16, 5-(4-{[(3,4-Dichloro-5-methyl-1H-pyrrol-2-yl)carbonyl]amino}cyclohex-1-en-1-yl)benzoic acid] | – | – | – | 1 µg/mL (≈ 2.54 µM) | 2 µg/mL (≈ 5.09 µM) | 4 µg/mL (≈ 10.2 µM) | 1 µg/mL (≈ 2.54 µM) |
